Experimental data published in patent publication US10967076B2, “Use of non-labeled sugars and detection by MRI for assessing tissue perfusion and metabolism” (The Johns Hopkins University, priority 2010, dated 2021).

What was measured:
[1] = test system: MDA-MB-231 and MCF7 xenografts; test: DCE-MRI with GdDTPA (post-Gd-DTPA difference images) of the xenograft mouse; type: in vivo
From the text: We applied glucose infusion in vivo on xenografts in mice for two human breast cancer lines: less aggressive (MCF-7) and highly aggressive and metastatic (MDA-MB-231). Our MRI protocol used normal D-glucose (non-radioactive, non-hyperpolarized and not labeled with magnetic isotopes) and monitored this using glucose-based chemical exchange saturation transfer (glucoCEST) MRI. Images were compared with perfusion as assessed by dynamic contrast-enhanced (DCE) MRI and glucose uptake as assessed by FDG-PET. In-vivo animal experiments employed female SCID mice four to six weeks old. Tumor cells were implanted orthotopically in the mammary fat pad in an aseptic surgical procedure according to Institutional Animal Care and Use Committee (IACUC) guidelines. For cell implantation in the mammary fat pad, mice were anesthetized with ketamine and acepromazine (6.25 mg/kg and 62.5 mg/kg) injected in a volume of 0.05 ml using a sterile insulin syringe (28.5 G needle), and a cell suspension containing 1×10^6 MDA-MB-231 cells in 0.05 ml of Hanks balanced salt solution was injected into the upper right thoracic mammary fat pad using a sterile insulin syringe (28.5 G needle). […] Following tumor cell implants, animals were monitored until recovered from anesthesia and then checked after 6 and 12 h, then daily. […]

[2] = test system: MDA-MB-231 and MCF-7 xenografts; test: steady-state glucoCEST MRI before and after D-glucose infusion in a xenograft mouse at 9.4 T; type: in vivo, mice; conditions: offset 1.2 ppm, blood glucose about 20 mM, preliminary data, FIG. 4F
From the text: Tumors are generally characterized by rapid glucose metabolism, increased tissue blood volume, and increased permeability to extravascular extracellular space (EES). We applied glucose infusion in vivo on xenografts in mice for two human breast cancer lines: less aggressive (MCF-7) and highly aggressive and metastatic (MDA-MB-231). Our MRI protocol used normal D-glucose (non-radioactive, non-hyperpolarized and not labeled with magnetic isotopes) and monitored this using glucose-based chemical exchange saturation transfer (glucoCEST) MRI. Images were compared with perfusion as assessed by dynamic contrast-enhanced (DCE) MRI and glucose uptake as assessed by FDG-PET. In-vivo animal experiments employed female SCID mice four to six weeks old. Tumor cells were implanted orthotopically in the mammary fat pad in an aseptic surgical procedure according to Institutional Animal Care and Use Committee (IACUC) guidelines. […] Following tumor cell implants, animals were monitored until recovered from anesthesia and then checked after 6 and 12 h, then daily. […]

[3] = test system: MDA-MB-231 and MCF7 xenografts; test: dynamic glucoCEST MRI during D-glucose infusion in a xenograft mouse at 11.7 T; type: in vivo; conditions: FIGS. 6A-6C
From the text: FIGS. 6A-6C show results for a D-glucose infusion experiment with dynamic monitoring of the MR exchange transfer signals for a mouse with two tumor xenografts (MDA-MB-231 and MCF7) at 11.7 T for which a D-glucose infusion protocol similar to the example in FIG. 4 was used.

[4] = test system: MDA-MB-231 and MCF-7 xenografts; test: 18F-FDG-PET of the xenograft mouse; type: in vivo; conditions: 1 hr post-injection, FIG. 5B
From the text: We applied glucose infusion in vivo on xenografts in mice for two human breast cancer lines: less aggressive (MCF-7) and highly aggressive and metastatic (MDA-MB-231). Our MRI protocol used normal D-glucose (non-radioactive, non-hyperpolarized and not labeled with magnetic isotopes) and monitored this using glucose-based chemical exchange saturation transfer (glucoCEST) MRI. Images were compared with perfusion as assessed by dynamic contrast-enhanced (DCE) MRI and glucose uptake as assessed by FDG-PET. In-vivo animal experiments employed female SCID mice four to six weeks old. Tumor cells were implanted orthotopically in the mammary fat pad in an aseptic surgical procedure according to Institutional Animal Care and Use Committee (IACUC) guidelines. For cell implantation in the mammary fat pad, mice were anesthetized with ketamine and acepromazine (6.25 mg/kg and 62.5 mg/kg) injected in a volume of 0.05 ml using a sterile insulin syringe (28.5 G needle), and a cell suspension containing 1×10^6 MDA-MB-231 cells in 0.05 ml of Hanks balanced salt solution was injected into the upper right thoracic mammary fat pad using a sterile insulin syringe (28.5 G needle). […] Following tumor cell implants, animals were monitored until recovered from anesthesia and then checked after 6 and 12 h, then daily.

For `O=C([O-])CN(CCN(CC(=O)[O-])CC(=O)O)CCN(CC(=O)[O-])CC(=O)O.[Gd+3]` [Gd-DTPA, Gadolinium-DiethyleneTriaminePentaacetic Acid], the “visualization of the tumor mass” value ([1]; 0.2 mmole/kg GdDTPA, FIG. 5C) was “good visualization of the tumor mass relative to normal tissue” and the “highlighting of the necrotic area in the MCF7 tumor” value ([1]; Gd perfusion scan) was “did not highlight the necrotic area in the MCF7 tumor”.

In the case of `O=C[C@H](O)[C@@H](O)[C@H](O)[C@H](O)CO` [D-glucose], the “glucose uptake (MTR asymmetry histograms before and after infusion, ROIs)” value [2] is reported as “a trend towards higher glucose uptake in the malignant MDA-MB-231 tumor (ROI 1) as well as in the necrotic area in the MCF7 tumor (ROI 2)” and the “uptake (MTRasym signal changes as a function of time during infusion, rim and tumor center)” value [3] is reported as “uptake is higher in the more malignant MDA-MB-231 tumor”.

In the case of Fluorodeoxyglucose [^18F-FDG], the “glucose uptake on PET” value [4] is reported as “the MDA-MB-231 tumor exhibits a higher glucose uptake than the MCF-7 tumor”.
